In patent US5096929A, “2-amino-1,2,3,4-tetrahydronaphthalene derivatives with cardiovascular activity, process for their preparation and pharmaceutical compositions containing them” (Chiesi Farmaceutici S.p.A., priority 1989, dated 1992) one finds LD50 data, which are given here for one compound.

Where a name gives a salt, the structure may show the parent alone. Read-outs that look alike come from different tables or passages of the source.

This data set can be described thus: Evaluation of acute toxicities, rat. The following applies: in vivo, male/female, read-out: Acute toxicity mean LD50. An excerpt: Evaluation of acute toxicities

One may read the LD50 as the dose expected to kill half of the subjects tested. With `COc1ccc2c(c1OC)CCC(N[C@@H](C)[C@H](O)c1ccc(O)cc1)C2` (relative stereo) [CHF 1255, Erythro-5,6-Dimethoxy-2-[2-(4-hydroxyphenyl)-2-hydroxy-1-mehylethylamino]1,2,3,4-tetrahydronaphthalene hydrochloride], the LD50 runs as follows: (iv, i.v.) 59 mg/kg; (po, os) 1270 mg/kg.
